What all share (format): cell-based
Series [1] deals with INS1 cells. Kind of series: Cell growth rate under doxycycline. The settings on record: 1 mg/ml, 24, 48 and 72 hours. As to the method: (§1) INS1 (an insulin secreting cell line) cells (FIGS. 1A and 1B) and primary beta-cells (FIG. 1C) were treated with 1 mg/ml doxycycline for 72 hours. […] FIGS. 1B and 1C show basal Oxygen Consumption Rate (OCR) measured with Seahorse XF 24 respirometer. Average of 4 wells +/−SEM.

A further series deals with primary beta-cells. The experiment in a line: Basal oxygen consumption rate in primary beta-cells. Conditions: 1 mg/ml, 72 hours. As to the method: as §1
Series [2] has as its system INS1 cells expressing MitoTimer. Kind of series: MitoTimer red/green ratio high-content screen and dose-response. The settings on record: Rapamycin 100 nM, 18 h; for MitoTimer red/green ratio (known modulators): Urolithin 50 uM, Bafilomycin 200 nM, Chloroquine 20 uM. As to the method:
INS1 cells were stably transduced with MitoTimer by lentiviral infection and were tested using known modulators of autophagy. The paradigm used was based on previous reports showing that the shift in emission from green to red occurs within 18 hours. Assuming that this shift is constant, changes in red FI occurring during this frame of time can result from an effect on MitoTimer clearance and not from an effect on synthesis. The paradigm employed consisted therefore of a treatment lasting 18 hours followed by imaging.
Stimulators of mitochondrial clearance were defined as those inducing a red-to-green FI below −3 and a red intensity below −5.1. Suppressors of mitochondrial clearance were defined as those inducing a red-to-green FI above 10.34 and a red intensity above 4.5. […] Compounds displaying high green FI (above 15) were also discarded to prevent the inclusion of autofluorescent molecules. Only molecules that filled the above criteria in both duplicates were further tested.
The screen was performed during 8 sessions in Weizmann institute. All compounds were tested at a concentration of 10 μM, in duplicates. The images were processed to reduce background (using Metamorph software) and then analyzed in GeneData software.
We subjected those compounds to a dose-response assay (concentrations: 10, 3.33, 1.11, 0.37 and 0.12 μM).
MitoTimer expressing INS1 cells generation, Cell Culture and treatments. MitoTimer-reporter was cloned into the pHAGE2 lenti-vector under the full-length EF1-alpha promoter to obtain constitutive expression. For the HCS, INS1 cells were infected with lentivirus carrying mitochondrial complex-I-targeted-MitoTimer plasmid. Highly expressing cells were selected by high speed fluorescence activated cell sorter (SY3200 cell sorter, Synergy, iCyt) and kept by the addition of puromycin (1 mg . L-1) in the cell media. Cells were thawed before each experiment, and MitoTimer expression checked through fluorescence.
High-Content Screening. […] HCS assay was developed at the Drug Discovery Unit, INCPM, Weizmann Institute of Science. […] Briefly, cells were treated with 10 uM of each compounds for 18 h and imaged in two wavelengths (FITC—excitation […], emission 520/35 nm and TRITC—excitation 543/22 nm, emission 593/40 nm) at ImageXpress Micro High-Content Imaging System/Molecular Devices. Rapamycin 100 nM was used as a control. In each cell plate, the neutral (DMSO) and positive control (Rapamycin) were repeated in 16 replicates while the treatments were performed in duplicates. Each plate was replicated and only hits found in the 2 independent plates were considered. Two fields of each well were analyzed, what normally allowed the analysis of 20-40 cells per condition. MitoTimer red/green ratio for every cell was done in MetaXpress. […] The compounds which affected MitoTimer red/green ratio in a dose response, ranging from […], were classified as a hit.
Individual cells were identified using the red channel, and red and green MitoTimer fluorescence were analyzed and ratio determined per cell.

Series [3] has as its system INS1 cells. Kind of series: Mitochondrial mass by Mitotracker green staining. The settings on record: 18 h; SPB08007 25 μM, MWP00839 11.5 μM, Urolithin A 25 μM. As to the method:
The Z-score depicts the standard deviation from the neutral control (DMSO). In FIG. 3C: Mitochondrial mass in INS1 cells treated for 18 hours with either DMSO (control), Urolithin A (25 μM), SPB08007 (“SBP”) (25 μM) or MWP00839 (“MWP”) (11.5 μM) and then stained with Mitotracker green (200 nM). In FIG. 3D: SPB08007 and MWP00839 increase the number of mitochondria inside autolysosomes. INS1 cells expressing mCherry-GFP were exposed to SPB08007, MWP00839, and DMSO for 8 hours and then subjected to confocal microscopy. The area of red fluorescence in the taken images was determined. N=3+/−SEM pANOVA<0.05. FIG. 3E provides representative images. […] FIG. 3F provides the Western blot against LC3 in INS1 cells treated with the compounds in presence or absence of bafilomycin (+b) for the last 2 hours.
Mitotracker Green Fluorescence, Anion Radical Superoxide and Mitochondrial Membrane Potential. INS1 cells were seeded into wells of a 96-wells glass bottom cell culture plate (CELLSTAR) at a density of 2*10^4 cells/well. To assess mitochondrial clearance, a pulse-chase experiment was performed. […] Results are expressed as the percentage of MTG fluorescence relative to MTG fluorescence of the “time 0” control. […] Integrated fluorescence of each field was analyzed in Image J after background subtraction and threshold (IsoData) application. Twenty-four fields of each condition were analyzed in each experiment.

With `C[C@H]1c2cccc(O)c2C(=O)C2=C(O)[C@]3(O)C(=O)C(C(N)=O)=C(O)[C@@H](N(C)C)[C@@H]3[C@@H](O)[C@@H]21` [Doxycycline], in the series on INS1 cells [1], the cell growth result was “impairs”. Moreover, the “basal oxygen consumption rate (OCR)” value with primary beta-cells is “impairs”. In the case of `CO[C@H]1C[C@@H]2CC[C@@H](C)[C@@](O)(O2)C(=O)C(=O)N2CCCC[C@H]2C(=O)O[C@H]([C@H](C)C[C@@H]2CC[C@@H](O)[C@H](OC)C2)CC(=O)[C@H](C)/C=C(\C)[C@@H](O)[C@@H](OC)C(=O)[C@H](C)C[C@H](C)/C=C/C=C/C=C/1C` [Rapamycin, reference compound], in series [2], the “increase of MitoTimer red/green ratio” value is given as 50%. Regarding `O=c1oc2cc(O)ccc2c2ccc(O)cc12` [Urolithin A, reference compound], the “MitoTimer red/green ratio (known modulators)” value in series [2] was “significantly reduced”. Further, in the series with INS1 cells [3], the “mitochondrial mass (mitotracker green fluorescence)” value is “reduction”. `CO/C1=C\C(C)=C\[C@@H](C)[C@@H](O)[C@@H](C)C/C(C)=C/C=C/[C@H](OC)[C@@H]([C@@H](C)[C@@H](O)[C@H](C)[C@@]2(O)C[C@@H](O)[C@H](C)[C@@H](C(C)C)O2)OC1=O` [bafilomycin A1, reference compound]: the “MitoTimer red/green ratio (known modulators)” value in series [2] is on record as “increased”.
